{"source": "ChEMBL document CHEMBL5465560", "about": "“Selectivity Literature for EUbOPEN Chemogenomic Library” (2024)", "key": {"[1]": {"target": "Tyrosine-protein kinase Fgr (Homo sapiens) (UniProt P09769)", "sequence (P09769 2-529 limits assumed)": "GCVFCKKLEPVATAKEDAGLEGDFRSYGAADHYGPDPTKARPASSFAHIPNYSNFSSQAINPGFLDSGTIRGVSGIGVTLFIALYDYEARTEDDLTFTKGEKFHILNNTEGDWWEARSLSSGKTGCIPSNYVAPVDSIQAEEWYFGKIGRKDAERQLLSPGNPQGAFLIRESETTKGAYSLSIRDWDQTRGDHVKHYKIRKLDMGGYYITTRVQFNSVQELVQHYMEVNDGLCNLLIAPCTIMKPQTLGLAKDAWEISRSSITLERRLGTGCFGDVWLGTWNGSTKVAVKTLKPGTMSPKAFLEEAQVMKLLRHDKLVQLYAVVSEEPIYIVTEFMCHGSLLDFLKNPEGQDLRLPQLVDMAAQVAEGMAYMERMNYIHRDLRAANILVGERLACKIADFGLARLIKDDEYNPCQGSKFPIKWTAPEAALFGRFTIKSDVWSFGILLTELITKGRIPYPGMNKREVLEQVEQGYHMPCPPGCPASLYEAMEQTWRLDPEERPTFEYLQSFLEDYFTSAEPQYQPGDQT", "assay": "Selectivity interaction (KinomeScan (DiscoverX)) EUB0000595a FGR", "settings": "at 10 µM"}, "[2]": {"target": "Mitogen-activated protein kinase 11 (Homo sapiens) (UniProt Q15759)", "sequence (Q15759 whole entry)": "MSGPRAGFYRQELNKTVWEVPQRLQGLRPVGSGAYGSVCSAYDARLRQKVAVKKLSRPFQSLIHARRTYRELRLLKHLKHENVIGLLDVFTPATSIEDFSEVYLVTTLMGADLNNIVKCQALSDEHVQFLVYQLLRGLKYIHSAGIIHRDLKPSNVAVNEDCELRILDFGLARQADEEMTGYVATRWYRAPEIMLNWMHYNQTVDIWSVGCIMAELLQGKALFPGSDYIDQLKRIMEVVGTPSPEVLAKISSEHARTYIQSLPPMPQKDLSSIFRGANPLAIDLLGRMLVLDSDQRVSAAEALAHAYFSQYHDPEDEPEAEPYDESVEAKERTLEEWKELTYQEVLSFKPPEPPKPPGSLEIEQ", "assay": "Selectivity interaction (KinomeScan (DiscoverX)) EUB0000595a MAPK11", "settings": "at 10 µM"}, "[3]": {"target": "T1, Phosphorylase b kinase gamma catalytic chain, liver/testis isoform (Homo sapiens) (UniProt P15735)", "T1 sequence (whole entry)": "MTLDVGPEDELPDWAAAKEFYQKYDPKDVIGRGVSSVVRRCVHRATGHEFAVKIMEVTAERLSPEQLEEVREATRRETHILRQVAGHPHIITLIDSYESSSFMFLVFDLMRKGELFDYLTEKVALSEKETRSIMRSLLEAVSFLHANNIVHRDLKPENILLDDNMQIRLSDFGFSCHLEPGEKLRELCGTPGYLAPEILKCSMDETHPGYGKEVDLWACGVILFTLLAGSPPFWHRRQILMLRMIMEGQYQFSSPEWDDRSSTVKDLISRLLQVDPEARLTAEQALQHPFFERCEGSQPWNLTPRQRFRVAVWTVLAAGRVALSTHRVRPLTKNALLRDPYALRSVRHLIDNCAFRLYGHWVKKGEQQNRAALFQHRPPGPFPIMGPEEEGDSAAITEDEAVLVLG", "settings": "at 10 µM"}, "[4]": {"target": "T2, Serine/threonine-protein kinase Sgk2 (Homo sapiens) (UniProt Q9HBY8)", "T2 sequence (whole entry)": "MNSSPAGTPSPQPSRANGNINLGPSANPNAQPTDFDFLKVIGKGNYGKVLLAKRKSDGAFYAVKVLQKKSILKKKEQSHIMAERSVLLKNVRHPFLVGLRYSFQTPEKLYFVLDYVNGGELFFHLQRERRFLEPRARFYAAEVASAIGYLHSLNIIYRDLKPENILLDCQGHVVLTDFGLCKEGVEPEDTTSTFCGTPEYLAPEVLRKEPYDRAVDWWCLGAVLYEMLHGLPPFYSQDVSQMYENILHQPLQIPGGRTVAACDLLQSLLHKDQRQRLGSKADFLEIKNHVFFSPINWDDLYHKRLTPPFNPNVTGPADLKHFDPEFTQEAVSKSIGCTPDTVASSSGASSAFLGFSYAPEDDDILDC", "assay": "Selectivity interaction (ProQinase) EUB0000171b SGK2"}, "[5]": {"target": "T3, Phosphatidylinositol 4,5-bisphosphate 3-kinase catalytic subunit delta isoform (Homo sapiens) (UniProt O00329)", "T3 sequence (whole entry)": "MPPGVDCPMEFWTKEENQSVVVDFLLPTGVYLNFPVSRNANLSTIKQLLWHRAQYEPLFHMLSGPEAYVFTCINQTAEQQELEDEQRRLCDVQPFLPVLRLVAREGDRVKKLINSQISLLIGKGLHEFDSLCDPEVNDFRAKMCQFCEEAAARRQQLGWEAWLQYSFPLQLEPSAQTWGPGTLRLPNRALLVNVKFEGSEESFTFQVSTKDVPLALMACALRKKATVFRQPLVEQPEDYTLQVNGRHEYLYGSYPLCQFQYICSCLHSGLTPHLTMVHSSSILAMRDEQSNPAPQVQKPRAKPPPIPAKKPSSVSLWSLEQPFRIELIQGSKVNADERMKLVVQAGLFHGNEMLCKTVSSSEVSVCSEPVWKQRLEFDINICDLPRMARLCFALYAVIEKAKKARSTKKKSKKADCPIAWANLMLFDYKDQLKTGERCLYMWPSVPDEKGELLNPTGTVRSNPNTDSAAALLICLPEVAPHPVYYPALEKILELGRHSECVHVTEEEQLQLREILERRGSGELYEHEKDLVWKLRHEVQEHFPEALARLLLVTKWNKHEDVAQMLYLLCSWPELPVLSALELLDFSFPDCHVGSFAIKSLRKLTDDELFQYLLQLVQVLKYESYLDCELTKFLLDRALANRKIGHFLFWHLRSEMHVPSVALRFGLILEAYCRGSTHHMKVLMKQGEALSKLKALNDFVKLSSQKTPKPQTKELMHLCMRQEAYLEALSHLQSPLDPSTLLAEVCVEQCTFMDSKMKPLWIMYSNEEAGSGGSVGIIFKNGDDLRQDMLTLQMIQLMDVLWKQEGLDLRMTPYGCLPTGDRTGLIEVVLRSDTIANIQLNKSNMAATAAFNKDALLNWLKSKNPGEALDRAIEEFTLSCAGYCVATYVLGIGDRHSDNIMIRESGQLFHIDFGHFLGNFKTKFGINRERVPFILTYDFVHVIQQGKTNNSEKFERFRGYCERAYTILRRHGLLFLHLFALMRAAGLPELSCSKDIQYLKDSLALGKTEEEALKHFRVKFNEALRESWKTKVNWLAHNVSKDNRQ", "assay": "Selectivity interaction (KinomeScan (DiscoverX)) EUB0000607a PIK3CD", "settings": "at 10 µM"}, "[6]": {"target": "Ribosomal protein S6 kinase alpha-5 (Homo sapiens) (UniProt O75582)", "sequence (O75582 whole entry, looked up)": "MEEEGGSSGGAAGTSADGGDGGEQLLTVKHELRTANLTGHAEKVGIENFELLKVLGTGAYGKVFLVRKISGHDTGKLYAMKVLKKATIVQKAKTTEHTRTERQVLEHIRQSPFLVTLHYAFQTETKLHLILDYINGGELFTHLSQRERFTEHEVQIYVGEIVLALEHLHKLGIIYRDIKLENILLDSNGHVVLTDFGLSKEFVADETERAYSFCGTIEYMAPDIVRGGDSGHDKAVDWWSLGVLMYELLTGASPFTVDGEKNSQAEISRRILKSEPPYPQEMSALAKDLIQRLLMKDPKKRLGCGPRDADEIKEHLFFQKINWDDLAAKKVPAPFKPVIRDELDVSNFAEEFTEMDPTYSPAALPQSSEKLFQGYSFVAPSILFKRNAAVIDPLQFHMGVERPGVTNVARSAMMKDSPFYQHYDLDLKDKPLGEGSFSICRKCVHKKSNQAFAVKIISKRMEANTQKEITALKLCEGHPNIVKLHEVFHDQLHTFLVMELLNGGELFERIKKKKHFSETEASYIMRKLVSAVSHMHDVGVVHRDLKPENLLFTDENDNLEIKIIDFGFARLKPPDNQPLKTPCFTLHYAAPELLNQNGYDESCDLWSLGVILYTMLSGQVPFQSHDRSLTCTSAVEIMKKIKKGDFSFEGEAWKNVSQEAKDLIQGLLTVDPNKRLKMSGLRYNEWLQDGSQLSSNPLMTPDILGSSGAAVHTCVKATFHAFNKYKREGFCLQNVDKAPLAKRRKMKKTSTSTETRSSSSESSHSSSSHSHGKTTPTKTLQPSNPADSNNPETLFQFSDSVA", "assay": "Selectivity interaction (Kinase panel (Invitrogen)) EUB0000639a RPS6KA5", "settings": "at 200 nM"}, "[7]": {"target": "T4, NUAK family SNF1-like kinase 1 (Homo sapiens) (UniProt O60285)", "T4 sequence (whole entry)": "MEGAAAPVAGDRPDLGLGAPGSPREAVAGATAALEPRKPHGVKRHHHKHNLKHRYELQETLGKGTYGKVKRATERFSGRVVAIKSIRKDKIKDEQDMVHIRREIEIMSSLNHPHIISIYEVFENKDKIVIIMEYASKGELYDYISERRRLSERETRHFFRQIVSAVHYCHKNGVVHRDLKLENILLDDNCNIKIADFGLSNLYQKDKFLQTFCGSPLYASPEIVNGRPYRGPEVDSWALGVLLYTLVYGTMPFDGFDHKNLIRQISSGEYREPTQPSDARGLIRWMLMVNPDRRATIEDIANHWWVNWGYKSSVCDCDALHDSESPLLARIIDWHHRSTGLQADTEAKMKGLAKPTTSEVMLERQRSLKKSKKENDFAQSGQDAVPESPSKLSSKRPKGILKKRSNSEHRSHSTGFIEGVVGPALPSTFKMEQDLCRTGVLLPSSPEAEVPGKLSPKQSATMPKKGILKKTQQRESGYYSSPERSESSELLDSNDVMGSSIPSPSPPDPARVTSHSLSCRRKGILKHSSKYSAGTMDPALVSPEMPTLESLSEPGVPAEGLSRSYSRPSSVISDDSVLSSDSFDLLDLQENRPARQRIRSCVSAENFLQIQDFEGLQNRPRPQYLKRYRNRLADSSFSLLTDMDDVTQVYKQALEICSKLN", "assay": "Selectivity interaction (KinomeScan (DiscoverX)) EUB0000092b NUAK1", "settings": "at 10 µM"}}}
{"smiles": "COCC(=O)NC/C=C/c1ccc2ncnc(Nc3ccc(Oc4ccc(C)nc4)c(C)c3)c2c1", "note": "[CP-724714]", "values": [{"measurement": "% of control", "setting": "[1]", "result": 89, "unit": "%"}, {"measurement": "% of control", "setting": "[2]", "result": 100, "unit": "%"}]}
{"smiles": "Cc1cc([C@@H](C)Nc2ccccc2C(=O)O)c2nc(N3CCOCC3)cc(=O)n2c1", "note": "[AZD-6482]", "values": [{"measurement": "% of control", "setting": "[3]", "result": 100, "unit": "%"}]}
{"smiles": "C=CC(=O)Nc1cccc(C(=O)Nc2ccc(Nc3cc(-c4[nH]c(SC)nc4C)ccn3)cc2)c1", "values": [{"measurement": "% of control", "setting": "[4]; at 1 µM", "result": 93, "unit": "%"}, {"measurement": "% of control", "setting": "[4]; at 5 µM", "result": 71, "unit": "%"}]}
{"smiles": "CNC(=O)Nc1ccc(-c2nc(N3CC4CCC(C3)O4)c3cnn(C4CCC5(CC4)OCCO5)c3n2)cc1", "values": [{"measurement": "% of control", "setting": "[5]", "result": 5.7, "unit": "%"}]}
{"smiles": "CC[C@@H]1[C@H](F)C(=O)N[C@@H]1COc1nccc2cc(C(N)=O)c(OC)cc12", "note": "[ZIMLOVISERTIB]", "values": [{"measurement": "% of inhibition", "setting": "[6]", "result": 0.449, "unit": "%"}]}
{"smiles": "CCC(=O)N1CCN(c2ccc(-n3c(=O)ccc4cnc5ccc(-c6cnc7ccccc7c6)cc5c43)cc2C(F)(F)F)CC1", "values": [{"measurement": "% of control", "setting": "[7]", "result": 100, "unit": "%"}]}
